# Columns and labels:
# [1] = system: Apis mellifera; conditions: acute, duration: 48 hours, mortality
# [2] = system: Canidae; conditions: subchronic; duration: 90 days; dermal; Dog Other; organ weight
# [3] = system: Colinus virginianus
# [4] = system: Daphnia magna; conditions: chronic/long-term; duration: 21 days; reproduction
# [5] = system: Folsomia candida; conditions: chronic/long-term; mortality
# [6] = system: Neomysis kadiakensis; conditions: acute; duration: 48 hours; mortality
# [7] = system: Oncorhynchus mykiss
# [8] = system: Rattus norvegicus
# [9] = system: Tagia sp.; conditions: chronic/long-term; duration: 56 days; growth
# [10] = system: Aphidius rhopalosiphi; test: LR50; higher = less toxic; conditions: not reported; mortality
# [11] = system: Typhlodromus pyri; test: LR50; higher = less toxic; conditions: not reported; reproduction
compound,measurement,setting,value
COC[C@H](C)N(C(=O)CCl)c1c(C)csc1C [Dimethenamid-P],LD50,[1]; dermal,93.8 µg/piece
same,LD50,"[1]; oral, unspecified",119 µg/piece
same,NOAEL,[2],4.3 mg/kg-day
same,LD50,"[3]; acute, oral, mortality",1070 mg/kg-day
same,LEL,"[3]; chronic, mortality",107 mg/kg-day
same,NOAEL,[3]; reproduction developmental,114 mg/kg-day
same,NOEC,[4],0.68 mg/L
same,NOEC,[5],12.5 mg/kg
same,LC50,[6],3.2 µg/mL
same,LC50,"[7]; acute, duration: 96 hours, mortality",2.6 µg/mL
same,NOEC,"[7]; chronic/long-term, growth",0.12 mg/L
same,LD50,"[8]; acute, oral, mortality",466 mg/kg-day
same,NOAEL,"[8]; chronic, duration: 2 years, organ weight",5 mg/kg-day
same,NOAEL,"[8]; developmental, development",25 mg/kg-day
same,LOAEL,"[8]; reproduction developmental, food consumption",25 mg/kg-day
same,NOEC,[9],25.4 mg/kg
same,LR50,[10],66.3 mL/ha
same,LR50,[11],> 1.4e+06 mL/ha
